The text below walks through data of paper PMC3382112 (Chemistry, an Asian journal, 2012).

In one assay the target is DQ2–CLIP complex (Homo sapiens, UniProt P01909+P01920). Put plainly: CLIP pre-conditioned peptide exchange assay. Format: binding. The note with it: CE-FL; for binding to DQ2–CLIP preparation / displacement of pre-bound CLIP peptide: pH 5.5, peptide:DQ2 5:1 ([Cy5-20-mer]=35 μM; [DQ2-CLIP complex]=7 μM).
In the next assay the test system is HLA-DQ2. Put plainly: DQ2-peptide binding. Set-up: species or system human. As to conditions: single peptide binding; thrombin treated DQ2–αI; DQ2:peptide = 10:1 ([DQ2]=6 μM, [peptide]=0.6 μM); 48 h at 37 °C; phosphate buffer pH 7.3; CE-FL peak areas; error less than 4% in multiple repeats.

Chain of DQ2–CLIP complex (P01920 33-230 limits assumed, other chains not shown): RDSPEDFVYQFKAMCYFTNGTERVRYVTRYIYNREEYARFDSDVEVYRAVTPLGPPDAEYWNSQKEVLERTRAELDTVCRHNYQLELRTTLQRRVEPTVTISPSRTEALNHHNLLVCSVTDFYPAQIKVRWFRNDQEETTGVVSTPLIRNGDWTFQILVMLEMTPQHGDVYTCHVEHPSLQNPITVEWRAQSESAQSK

As to Cy5-AAIAAVKEEAF [reference compound], the “binding to DQ2–CLIP preparation / displacement of pre-bound CLIP peptide” value at DQ2–CLIP complex is reported as “unable to bind”.
Regarding Cy5-LQLQPFPQPELPYPQPELPY [Cy5-20-mer], in the assay with HLA-DQ2, the “SDQ2-peptide / Stotal peptide (%) (binding capacity, fraction of bound peptide)” value turned out to be 64%. Further, the “binding to DQ2–CLIP preparation / displacement of pre-bound CLIP peptide” value at DQ2–CLIP complex is given as “not at pH 5.5”. The “effect on dissociation kinetics of CLIP peptide from DQ2–CLIP complex” value on DQ2–CLIP complex (pH 7.3, with 20-mer (5:1, [Cy5-20-mer]=35 μM; [DQ2-CLIP complex]=7 μM) versus absence of 20-mer) is reported as “did not affect the dissociation kinetics”.
